Experimental data reported in patent US8377923B2, “Triazole derivative or salt thereof” (Astellas Pharma Inc., priority 2008, dated 2013).
Counter-ions that a name gives are not always drawn.

Experiments:
[1] = biological target: T1, human recombinant 11β-HSD1 (Homo sapiens, UniProt P28845); test: Measuring test for human 11β-HSD1 inhibitory activity (HTRF cortisol detection); type: biochemical; conditions: human recombinant 11β-HSD1, 200 nM cortisone, 40 μM NADPH, pH 6.6, room temperature 1 h
T1 construct: made in house
Method: (§1) Test Method 1: Measuring Test for Human 11β-HSD1 and 11β-HSD2 Inhibitory Activities
The procedure for measuring 11β-HSD1-inhibitory action was as follows. In this connection, the enzyme reaction and measurement were carried out using a 384-well plate. The enzyme was prepared in accordance with a document (Walker E. A. et al., Journal of Biological Chemistry, 2001, vol. 276, p. 21343-21350). The reaction was carried out by adding the compound to be tested with various concentrations to a reaction liquid consisting of 10 mM phosphate buffer (pH 6.6), 200 nM cortisone, 40 μM reduced nicotinamide adenine dinucleotide phosphate (NADPH) and human recombinant 11β-HSD1, and then incubating the same at room temperature for one hour (10 μl/well). The compound to be tested was prepared by dissolving in dimethyl sulfoxide (DMSO) to a DMSO concentration of 1% in the reaction liquid. After the enzyme reaction was completed, the enzyme inhibitory action was measured by detecting cortisol using a homogeneous time-resolved fluorescence method (HTRF). Each of the XL-665-labeled cortisol containing 400 μM carbenoxolone and cryptate-labeled cortisol antibody (CIS bio international Co., Ltd.) was added in 5 μl/well portions and incubated at room temperature for 2 hours, and then the fluorescence intensity was measured using a fluorophotometer (trade name: Discovery, Perkin Elmer Inc.), and the enzyme inhibitory action was calculated from the fluorescence intensity ratio at two wavelengths (665 nm/620 nm).
(§2) The measured result was calculated by averaging the values of 3 wells of the same condition. The ratio when DMSO was added instead of the compound to be tested was regarded as 0% and the ratio when 11β-HSD1 or 11β-HSD2 was not added was regarded as 100%, thereby calculating 50% inhibition concentration of the compound to be tested as IC50 of the compound inhibitory action.

[2] = biological target: T2, human recombinant 11β-HSD2 (Homo sapiens, UniProt P80365); test: Measuring test for human 11β-HSD2 inhibitory activity (HTRF cortisol detection); type: biochemical; conditions: human recombinant 11β-HSD2, 200 nM cortisol, 200 μM NAD, pH 8.0, 37° C. 2 h
T2 sequence (P80365 1-405): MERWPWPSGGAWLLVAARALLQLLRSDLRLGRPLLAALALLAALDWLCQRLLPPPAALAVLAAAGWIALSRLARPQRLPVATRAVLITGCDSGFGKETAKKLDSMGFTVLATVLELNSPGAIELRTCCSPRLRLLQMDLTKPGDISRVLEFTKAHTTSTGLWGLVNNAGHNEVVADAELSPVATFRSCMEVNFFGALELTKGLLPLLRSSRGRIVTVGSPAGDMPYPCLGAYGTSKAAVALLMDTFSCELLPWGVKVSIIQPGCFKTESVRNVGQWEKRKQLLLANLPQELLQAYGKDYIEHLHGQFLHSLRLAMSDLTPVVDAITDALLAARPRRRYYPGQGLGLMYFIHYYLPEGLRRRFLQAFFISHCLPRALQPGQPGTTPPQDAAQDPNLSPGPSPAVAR
Method: as §1
Measurement of the 11β-HSD2 inhibitory activity was carried out in the same manner as in the 11β-HSD1 inhibitory activity measurement, except for the enzyme reaction conditions. The enzyme reaction was carried out by adding the compound to be tested with various concentrations to a reaction liquid consisting of 40 mM Tris-HCl buffer (pH 8.0), 200 nM cortisol, 200 μM nicotinamide adenine dinucleotide (NAD) and human recombinant 11β-HSD2, and then incubating the same at 37° C. for 2 hours (10 μl/well).
as §2

male ddY mice = test: Scopolamine-induced impairment of spontaneous alternation behavior test (Y-maze); type: in vivo, mouse; conditions: oral, scopolamine 0.5 mg/kg i.p., Y-maze 8 minutes
Method: Test Method 5: Scopolamine-Induced Impairment of Spontaneous Alternation Behavior Test
The compound to be tested was orally administered to male ddY mice of 5 to 7 weeks of age and scopolamine was intraperitoneally administered at 0.5 mg/kg after 10 minutes. After more 20 minutes, the animals were put in a Y-maze having arms of equivalent lengths into three directions and were allowed to freely search for 8 minutes. In this time, spontaneous alternation behavior to the arm (consecutive approach three times to different arms) was counted and a spontaneous alternation rate (spontaneous alternation behavior÷(approach number−2)×100) was calculated to evaluate pharmaceutical efficacy.

ob/ob mice = test: Ob/ob mouse blood-glucose lowering test; type: in vivo; conditions: bid, oral, 14 days, male ob/ob mice, 12 hours after final administration
Method: Test Method 2: Ob/Ob Mouse Blood-Glucose Lowering Test
A compound liquid was prepared using 6% 2-hydroxypropyl-β-cyclodextrin as a solvent. Using 7 weeks-old male ob/ob mice (blood-glucose level of 300 mg/dL or more), blood-glucose levels were measured under non-fasting conditions and then the mice were divided into groups so that the blood-glucose levels became uniform among the groups. The compound to be tested was orally administered twice per day repeatedly for 14 days (3 or 10 mg/kg, bid) and a basal blood-glucose level was measured 12 hours after final administration (n=6 to 10). Similarly, the compound to be tested was orally administered twice per day repeatedly for […] (3 or 10 mg/kg, bid) and a blood glucose at fasting was measured under fasting conditions 12 hours after final administration. The blood-glucose level was measured by carrying out colorimetric determination of the amount of glucose (mg/dl) in heparin blood plasma obtained by collecting blood in a heparin-coated glass capillary and subsequently centrifuging the same.

[3] = tested on: CYP3A (human CYP3A gene promoter, via PXR); test: Human CYP3A enzyme inducibility test (PXR/CYP3A promoter luciferase reporter in HepG2); type: cell-based; conditions: HepG2 cells, 16 hours after addition of the drug
Method: Test Method 6: Human CYP3A Enzyme Inducibility Test
3E+6 (n) Human hepatoma-derived cell lines, HepG2, were seeded on a 10 cm collagen-coated dish. Human PXR expression vectors, luciferase reporter vector in which a human CYP3A gene promoter region is inserted, and renilla expression vector as a control were transiently introduced 6 hours after cell seeding. The entire cells were further seeded on 384-well plates 16 hours after introduction, and a drug dissolved in DMSO was added thereto 6 hours after seeding. Luciferase activity of the reporter gene and control gene were measured 16 hours after addition of the drug, a value corrected by a control was regarded as an active value, and the value obtained by dividing by an activity value in which no drug was added was calculated as a fold induction.

T1 sequence (P28845 whole entry): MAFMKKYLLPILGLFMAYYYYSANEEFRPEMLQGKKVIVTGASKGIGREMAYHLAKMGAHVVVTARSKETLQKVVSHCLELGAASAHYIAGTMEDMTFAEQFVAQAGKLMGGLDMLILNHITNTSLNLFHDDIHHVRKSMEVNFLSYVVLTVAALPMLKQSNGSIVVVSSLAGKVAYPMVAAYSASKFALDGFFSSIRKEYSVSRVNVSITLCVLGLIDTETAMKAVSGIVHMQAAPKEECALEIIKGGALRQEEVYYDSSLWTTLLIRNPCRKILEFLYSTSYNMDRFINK

Row | SMILES | IC50 [1] | IC50 [2] | fold induction at 16 h, 3 µM [3] | Minimal effective dose for spontaneous alternation rate (male ddY mice) | Basal blood-glucose lowering activity (%) (ob/ob mice; 10 mg/kg) | Basal blood-glucose lowering activity (%) (ob/ob mice; 3 mg/kg)
1 | Cn1c(-c2ccccc2C(F)(F)F)nnc1C(C)(C)Oc1ccc(Cl)cc1 [Example 64, 3-[1-(4-chlorophenoxy)-1-methylethyl]-4-methyl-5-[2-(trifluoromethyl)phenyl]-4H-1,2,4-triazole monohydrochloride] | 0.003 µM | > 3 µM | – | 0.001 mg/kg | – | –
2 | Cn1c(-c2ccc(F)cc2Cl)nnc1C(C)(C)Oc1c(F)cc(F)cc1F [Example 65, 3-(2-chloro-4-fluorophenyl)-4-methyl-5-[1-methyl-1-(2,4,6-trifluorophenoxy)ethyl]-4H-1,2,4-triazole monohydrochloride] | 0.0053 µM | > 3 µM | – | 0.01 mg/kg | – | –
3 | Cn1c(-c2ccccc2C(F)(F)F)nnc1C(C)(C)Oc1ccc(Cl)cc1-c1nnco1 [Example 69, 2-[5-chloro-2-(1-methyl-1-{4-methyl-5-[2-(trifluoromethyl)phenyl]-4H-1,2,4-triazol-3-yl}ethoxy)phenyl]-1,3,4-oxadiazole] | 0.0055 µM | > 3 µM | – | – | 32% (10 mg/kg) | –
4 | CCn1c(-c2ccc3cn[nH]c3c2)nnc1C(C)(C)Oc1c(F)cc(Cl)cc1F [Example 83, 6-{5-[1-(4-chloro-2,6-difluorophenoxy)-1-methylethyl]-4-ethyl-4H-1,2,4-triazol-3-yl}-1H-indazole] | 0.023 µM | > 10 µM | – | – | – | –
5 | CCn1c(N2CCc3[nH]ncc3C2)nnc1C(C)(C)Oc1c(F)cc(F)cc1F [Example 87, 5-{4-ethyl-5-[1-methyl-1-(2,4,6-trifluorophenoxy)ethyl]-4H-1,2,4-triazol-3-yl}-4,5,6,7-tetrahydro-1H-pyrazolo[4,3-c]pyridine dihydrochloride] | 0.013 µM | > 10 µM | – | – | – | –
6 | C[C@H](Oc1ccc(C(N)=O)cc1Br)c1nnc(-c2ccccc2C(F)(F)F)n1C [Example 127] | 0.0087 µM | > 3 µM | – | – | – | –
7 | Cn1c(-c2ccccc2C(F)(F)F)nnc1C(C)(C)Oc1ccc(Br)cn1 [Example 148] | 0.0046 µM | > 3 µM | – | 0.03 mg/kg | – | –
8 | Cn1c(-c2ccc(C(N)=O)cc2Cl)nnc1C(C)(C)Oc1c(F)cc(F)cc1F [Example 175] | 0.003 µM | > 3 µM | 1.24 | – | – | 20% (3 mg/kg)
9 | Cn1c(-c2ccc(C(N)=O)cc2Cl)nnc1C(C)(C)Oc1c(F)cc(Cl)cc1F [Example 185] | 0.0029 µM | > 3 µM | – | – | – | –
10 | Cn1c(-c2ccc(C(N)=O)cc2F)nnc1C(C)(C)Oc1c(F)cc(Cl)cc1F [Example 186] | 0.0033 µM | > 3 µM | – | 0.03 mg/kg | – | 23% (3 mg/kg)
11 | Cn1c(-c2ccccc2C(F)(F)F)nnc1C(C)(C)Oc1ccc(C(F)(F)F)cc1Cl [Example 204] | 0.12 µM | > 10 µM | – | – | 29% (10 mg/kg) | –
12 | Cn1c(-c2ccc(F)cc2Br)nnc1C(C)(C)Oc1ccc(Cl)cc1 [Example 215] | 0.012 µM | > 10 µM | – | 0.01 mg/kg | – | –
13 | CC(C)(Oc1ccc(F)cc1F)c1nnc(-c2ccc(C(N)=O)cc2F)n1C1CC1 [Example 355] | 0.027 µM | > 10 µM | – | – | – | –
14 | Cn1c(-c2ccc(F)c3ccccc23)nnc1C(C)(C)Oc1c(F)cc(F)cc1F [Example 373] | 0.1 µM | > 100 µM | – | – | – | –
15 | Cn1c(-c2cc(Cl)ccc2Cl)nnc1C(C)(C)Oc1c(F)cc(F)cc1F [Example 374] | 0.05 µM | > 30 µM | – | – | – | –
16 | CCn1c(-c2ccc(C(N)=O)cc2)nnc1C(C)(C)Oc1c(F)cc(Cl)cc1F [Example 509] | 0.021 µM | > 10 µM | – | 0.01 mg/kg | – | –

The next lines start with results.

Row | IC50 [1] | IC50 [2] | fold induction at 16 h, 3 µM [3] | SMILES | Minimal effective dose for spontaneous alternation rate (male ddY mice) | Basal blood-glucose lowering activity (%) (ob/ob mice; 10 mg/kg) | Basal blood-glucose lowering activity (%) (ob/ob mice; 3 mg/kg)
17 | 0.008 µM | > 3 µM | – | CCn1c(-c2ccc3c(c2)CNC3=O)nnc1C(C)(C)Oc1c(F)cc(F)cc1F [Example 518] | – | – | –
18 | 0.029 µM | > 10 µM | – | CC(C)(Oc1cc(F)c(F)cc1F)c1nnc(-c2ccc(C(N)=O)cc2F)n1C1CC1 [Example 525] | – | – | –
19 | 0.05 µM | > 10 µM | – | CC(C)n1c(-c2ccc(C(N)=O)cc2)nnc1C(C)(C)Oc1c(F)cc(F)cc1F [Example 531] | – | – | –
20 | 0.054 µM | > 10 µM | – | CC(C)n1c(-c2ccc(C(N)=O)cc2)nnc1C(C)(C)Oc1c(F)cc(Cl)cc1F [Example 535] | 0.01 mg/kg | – | –
21 | 0.015 µM | > 10 µM | – | Cn1c(-c2ccncc2C(F)(F)F)nnc1C(C)(C)Oc1c(F)cc(Cl)cc1F [Example 544] | – | – | –
22 | 0.073 µM | > 10 µM | – | Cn1cc(-c2nnc(C(C)(C)Oc3c(F)cc(F)cc3F)n2C2CC2)c(Cl)n1 [Example 545] | – | – | –
23 | 0.01 µM | > 3 µM | – | CC(C)(Oc1c(F)cc(Cl)cc1F)c1nnc(-c2cc3c(cc2F)C(=O)NC3)n1C1CC1 [Example 580] | – | – | –
24 | 0.013 µM | > 3 µM | – | Cn1c(-c2sc(N)nc2C(F)(F)F)nnc1C(C)(C)Oc1c(F)cc(Cl)cc1F [Example 587] | – | – | –
25 | 0.02 µM | > 10 µM | – | CC(C)n1c(-c2ccc(C(N)=O)cc2)nnc1C(C)(C)Oc1c(F)cccc1F [Example 616] | – | – | –
